The source of these data is PMC3265130 (ACS Chemical Biology, 2011).

The target of one assay is T1, L3MBTL1 3xMBT (Homo sapiens, UniProt Q9Y468).
T1 sequence (Q9Y468 197-526 isoform Q9Y468-1): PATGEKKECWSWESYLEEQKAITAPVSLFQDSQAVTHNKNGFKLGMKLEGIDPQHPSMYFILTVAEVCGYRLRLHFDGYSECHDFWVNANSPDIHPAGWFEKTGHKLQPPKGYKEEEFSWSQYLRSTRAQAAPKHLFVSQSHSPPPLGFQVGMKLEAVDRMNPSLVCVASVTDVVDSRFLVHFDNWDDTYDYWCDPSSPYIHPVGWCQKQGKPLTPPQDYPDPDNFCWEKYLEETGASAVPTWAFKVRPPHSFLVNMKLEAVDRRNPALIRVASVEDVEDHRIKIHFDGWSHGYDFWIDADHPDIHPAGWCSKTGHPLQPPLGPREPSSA
In kind it is binding. The note with it: site H4K20me1.

A further assay addresses 53BP1 Tudor domain (Homo sapiens, UniProt Q12888). The assay can be described thus: Fluorescence polarization binding of 53BP1 Tudor domain to histone H4 peptides. As to conditions: FP; result in words; methyl-lysine analogue peptide, site H4K20me2. (Fluorescence polarisation rises when a labelled molecule tumbles more slowly, as on binding a larger partner.)

Residues, ends and D or L forms follow the SMILES beside them. *: point of attachment. 5FAM = O=C1OC2(c3ccc(O)cc3Oc3cc(O)ccc32)c2ccc(C(=O)*)cc21; Ahx = NCCCCCC(=O)O; X1 = CNCC*

Sequence of 53BP1 Tudor domain (Q12888 1484-1603): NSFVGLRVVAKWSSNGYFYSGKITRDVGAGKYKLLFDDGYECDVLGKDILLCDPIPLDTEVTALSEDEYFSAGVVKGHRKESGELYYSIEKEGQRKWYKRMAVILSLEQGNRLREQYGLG

Take `CC[C@H](C)[C@H](NC(=O)[C@H](CC(N)=O)NC(=O)[C@H](CC(=O)O)NC(=O)[C@H](CCCNC(=N)N)NC(=O)[C@H](CC(C)C)NC(=O)[C@@H](NC(=O)[C@H](CSCCNC)NC(=O)[C@H](CCCNC(=N)N)NC(=O)[C@H](Cc1c[nH]cn1)NC(=O)[C@H](CCCNC(=N)N)NC(=O)[C@H](CCCCN)NC(=O)[C@H](C)NC(=O)CNC(=O)CNC(=O)[C@H](CCCCN)NC(=O)CCCCCNC(=O)c1ccc2c(c1)C(=O)OC21c2ccc(O)cc2Oc2cc(O)ccc21)C(C)C)C(=O)N[C@@H](CCC(N)=O)C(N)=O` [Fl-H4(12–27)KC20me1] ({5FAM-Ahx}-KGGAKRHRC(X1)VLRDNIQ-NH2): on L3MBTL1 3xMBT (FP, 25 °C, binding free energy, methyl-lysine analogue peptide), the “ΔG(KCme)” value is on record as “–24.6 ± 0.2 kJ/mol”. For the same compound, the “ΔΔG(exp)” value on L3MBTL1 3xMBT (ΔG(KCme) – ΔG(Kme) from FP Kd) was 1.22 ± 0.072 kcal/mol.
In the case of “fluoresceine-KGGAKRHRKC(me1)VLRDNIQ [Fl-H4(12–27)KC20me2]”, on 53BP1 Tudor domain, the “binding to the methyl-lysine analogue containing target” value is “no binding”.
